We go through one compound from PMC12858405, “Ideal efficacy photoswitching for chromocontrol of TRPC4/5 channel functions in live tissues” (Nature Chemical Biology, 2026).

This test addresses T1, EA-activated TRPC5 (Mus musculus, UniProt Q9QX29).
T1 construct: expressed in transfected cells; host or cells: HEK293-mTRPC5-YFP
T1 sequence (Q9QX29 1-975): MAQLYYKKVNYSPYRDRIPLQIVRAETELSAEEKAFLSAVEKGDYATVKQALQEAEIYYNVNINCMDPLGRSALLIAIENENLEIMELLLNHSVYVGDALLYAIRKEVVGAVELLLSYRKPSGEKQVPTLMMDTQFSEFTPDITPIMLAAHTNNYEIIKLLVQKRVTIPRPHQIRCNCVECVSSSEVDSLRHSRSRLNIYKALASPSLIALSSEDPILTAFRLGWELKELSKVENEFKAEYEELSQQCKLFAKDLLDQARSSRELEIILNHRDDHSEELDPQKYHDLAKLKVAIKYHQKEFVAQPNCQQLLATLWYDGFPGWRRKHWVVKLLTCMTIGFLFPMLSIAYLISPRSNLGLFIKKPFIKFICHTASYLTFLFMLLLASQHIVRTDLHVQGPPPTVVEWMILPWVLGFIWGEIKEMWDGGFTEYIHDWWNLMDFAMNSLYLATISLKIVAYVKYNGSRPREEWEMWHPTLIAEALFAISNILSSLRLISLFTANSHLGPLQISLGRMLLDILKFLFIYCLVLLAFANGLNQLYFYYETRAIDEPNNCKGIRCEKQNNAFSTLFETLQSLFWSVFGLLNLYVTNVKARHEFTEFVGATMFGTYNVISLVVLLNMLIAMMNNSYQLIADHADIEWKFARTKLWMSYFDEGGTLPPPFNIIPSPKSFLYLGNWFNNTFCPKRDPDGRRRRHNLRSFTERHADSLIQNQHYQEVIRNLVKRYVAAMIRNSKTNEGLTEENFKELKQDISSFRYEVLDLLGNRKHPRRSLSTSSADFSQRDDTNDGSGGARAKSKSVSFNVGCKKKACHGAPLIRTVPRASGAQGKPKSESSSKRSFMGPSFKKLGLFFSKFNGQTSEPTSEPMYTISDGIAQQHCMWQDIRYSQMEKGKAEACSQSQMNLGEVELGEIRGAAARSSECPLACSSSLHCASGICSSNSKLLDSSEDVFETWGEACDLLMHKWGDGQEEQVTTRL
Description: FLIPR Ca2+ assay, E isomers silencing EA-activated TRPC5 (HEK293-mTRPC5-YFP). The class given is cell-based. From the text:
Müller, Niemeyer, et al., Schaefer & Thorn-Seshold 2025: Ideal Efficacy Photoswitching of TRPC4/5 in Tissue but it can justify why the affinity of the E/Z-isomers may be similar.
(2) The EC50 values are reported as the midpoints of unconstrained sigmoidal fits to the FLIPR data (Fig 1l and Supplementary Fig. 2): with different levels of channel activation / blocking and very different Hill slopes across different compounds, isomers, and the two channels. This argues that the midpoint values only capture one of the several important factors describing the […]
We believe that it is possible to derive indicative relative values for binding affinity comparing the E and Z isomers of the same compound using only the combination of FLIPR and ephys data as reported in this paper; this analysis is being developed in a separate paper (see also below).
Supplementary Table 1. Potencies on TRPC4/5 depicted as either simple agonistic potency (blue) or else inhibitory […]
. Z*-values refer to mostly-Z-isomer reached at PSS at 365 nm, E*-values refer to experiments that initially applied 100% E-isomer (thermally relaxed), though in both cases the Ca2+ imaging in FLIPR with Fluo4-AM uses 470 nm excitation, which may over time promote photoswitching towards a PSS that is intermediate between those of pure-365 nm and all-E; this is controlled for in the more reliable ephys measurements). (Table indices: a, data from ref7; b, data from ref2; c, data from ref3; d, data from ref8.) EC50 [nM] (for simple agonism or EA-competitive inhibition)
E-AzPico 90 (vs 30 nM EA) 67 (vs 30 nM EA) […]
orange: inhibitory effect ag.: agonistic effect
1.1.1 From always-active antagonists and agonists towards efficacy photoswitches […]
photoisomerising an azobenzene that is merged in at the C’4 position yielding the compounds […]
inhibitory effect for the E-isomers (Supplementary Table 1). Essentially, the effects of Pico145 and AM237 are latent within a single (two-state reversibly photoswitchable) molecule. This combination is what we call an efficacy switch (also see main text Fig. 1e-j).
1.1.2 Mechanistic test for efficacy photoswitching […]
deliver (Fig. 1-2) is a powerful support for an efficacy switch interpretation. To indirectly support this further, we also measured the effects of E-AzPico and E-AzHC against EA-activated TRPC4/5.
Both E-isomers bind to TRPC4/5 and inhibit EA-evoked currents with nanomolar potencies (Supplementary Fig. 2, Supplementary Table 2). This supports the hypothesis that E- […]
to be an EA-competitive binder5,9,10), so their efficacy as single agent photoswitches results from E/Z-competitive binding that is determined by their PSS. […]
Supplementary Table 2. […] (a Inhibitory effect measured against 30 nM EA; b Inhibitory effect measured against 50 nM EA). […]

The term IC50 denotes the concentration needed to halve the response being measured. `Cn1c(=O)n(CCCO)c(=O)c2c1nc(Oc1ccc(/N=N/c3ccccc3)c(OC(F)(F)F)c1)n2Cc1ccc(Cl)cc1` [E-AzPico]: the IC50 amounted to 67 nM (Inhibitory IC50 (versus 30 nM EA) TRPC5, E isomer, thermally relaxed, 30 nM EA) and 69 nM (Inhibitory IC50 (versus 50 nM EA) TRPC5, E isomer, 50 nM EA).
